The test has as its target Cyclin-dependent kinase 7 (Homo sapiens, UniProt P50613). In words: CDK7 Kinase Activity Assay. The procedure:
Representative compounds of the present invention were assayed in vitro for CDK7 kinase-inhibitory activities using ADP-Glo platform. In detail, CDK7 kinase-inhibitory activity was measured using recombinant purified human CDK7 kinase (ThermoFisher, PV3868) and ADP Glo kinase assays kit (Promega, V9102). CDK7 kinase was diluted with 1× kinase reaction buffer (40 mM Tris-C1, pH 7.5, 20 mM MgCl2, 0.1 mg/ml BSA and 50 [M DTT) and added to 96 well plates (final concentration of CDK7 per reaction: 50 ng). The compound was finally treated to be a 1% DMSO aqueous solution, and a substrate cocktail containing ATP (final concentration of 90 [M) and 0.2 μg/μl of MBP (Myelin basic protein) in a total of 25 μl of reaction mass was added to 96 well plates, thereby initiating an enzymatic reaction. After 2 hours of incubation (30° C.), equivalent volume (25 μl per reaction) of ADP Glo was added and incubated (30° C.) at room temperature for 60 minutes. […] The kinase activity was measured by chemiluminescence method according to ADP Glo Kanease Assay Kit instruction manual, and the CDK7-inhibitory activity of the compounds according to the present invention was calculated. The result analysis of each compound was performed using Microsoft Excel, and IC50 values were calculated by Prism software.

Structures are written as SMILES.

Cyclin-dependent kinase 7, sequence (P50613 whole entry): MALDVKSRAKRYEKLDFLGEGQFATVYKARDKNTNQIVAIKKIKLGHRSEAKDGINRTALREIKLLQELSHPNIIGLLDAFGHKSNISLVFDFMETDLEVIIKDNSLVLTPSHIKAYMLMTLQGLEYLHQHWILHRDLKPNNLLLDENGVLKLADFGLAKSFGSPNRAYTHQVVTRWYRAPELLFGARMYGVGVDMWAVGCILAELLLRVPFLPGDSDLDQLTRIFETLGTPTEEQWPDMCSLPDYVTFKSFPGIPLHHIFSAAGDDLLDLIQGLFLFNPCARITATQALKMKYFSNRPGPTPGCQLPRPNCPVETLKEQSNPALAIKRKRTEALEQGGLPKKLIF

The term IC50 denotes the concentration that gives 50% inhibition. For `C[C@H](C(=O)Nc1ncc(Cl)s1)c1cccc(-c2cnc(NC(=O)/C=C/CN3CC4CC3CO4)cn2)c1` (stereo partly specified) [US12110299, Example 94], the IC50 came to 0.014 µM. This lies in the double-digit nanomolar range.

For the origin of these results see BindingDB's records for patent US12110299 (Yungjin Pharm., 2024).
